Measured values from patent US6914045B2, “Glycopeptide antibiotics” (Wyeth Holdings Corporation, priority 2001, dated 2005).
Values after ≈ are worked out from the molar mass of the structure shown.

What was measured:
Assay in all cases: in vitro antibacterial evaluation, MIC by broth dilution
Type in all cases: cell-based
Streptococcus sp. = conditions: broth dilution, 18 hours at 35° C.; for MIC Streptococcus pneumoniae (ATCC 6301): strain ATCC 6301; for MIC Streptococcus pneumoniae (GC 1894): strain GC 1894; for MIC Streptococcus pyogenes (GC 4563): strain GC 4563; for MIC Streptococcus agalactiae (GC 4564): strain GC 4564; for MIC Streptococcus pneumoniae (GC 4565): strain GC 4565
Method in brief: (§1)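 Read-out: the lowest concentration at which the test strain fails to grow. Serial dilutions (64-0.06 μg/mL) in Muller-Hinton II […], 5×10^5 CFU/mL inoculum, NCCLS M7-A2 procedure.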

Escherichia coli = test system: Escherichia coli
Method in brief: as §1

Staphylococcus sp. = conditions: broth dilution, 18 hours at 35° C.; for MIC Staphylococcus aureus (GC 1131): strain GC 1131
Method in brief: as §1

Enterococcus sp. = conditions: broth dilution, 18 hours at 35° C.; for MIC Enterococcus faecalis (ATCC 29212): strain ATCC 29212; for MIC Enterococcus faecalis (GC 2242): strain GC 2242; for MIC Enterococcus faecium (GC 2243): strain GC 2243; for MIC Enterococcus faecalis (GC 2691): strain GC 2691; for MIC Enterococcus faecalis (GC 3059): strain GC 3059; for MIC Enterococcus faecalis (GC 4552): strain GC 4552; for MIC Enterococcus faecalis (GC 4553): strain GC 4553; for MIC Enterococcus faecalis (GC 4554): strain GC 4554; for MIC Enterococcus faecium (GC 4556): strain GC 4556; for MIC Enterococcus faecium (GC 4557): strain GC 4557; for MIC Enterococcus avium (GC 4558): strain GC 4558; for MIC Enterococcus faecalis (GC 6189): strain GC 6189
Method in brief: as §1

CC(C)=CCCC(C)=CCOc1ccc(C2OCC3OC(OC4C(CO)OC(Oc5ccc(CC6NC(=O)C(C(C)c7ccccc7)NC(=O)CNC(=O)C(CO)NC(=O)C(C(O)C7CNC(=N)N7C7OC(CO)C(O)C(O)C7O)NC(=O)C(C(O)C7CNC(=N)N7)NC6=O)cc5)C(O)C4O)C(O)C(O)C3O2)cc1 (centres unmarked) [Example 183]
MIC Streptococcus pneumoniae (ATCC 6301) (Streptococcus sp.; inoculum 5×10^5 CFU/mL): <0.06 µg/mL | MIC Streptococcus pneumoniae (GC 1894) (Streptococcus sp.; inoculum 5×10^5 CFU/mL): <0.06 µg/mL | MIC Streptococcus pyogenes (GC 4563) (Streptococcus sp.; inoculum 5×10^5 CFU/mL): <0.06 µg/mL | MIC Streptococcus agalactiae (GC 4564) (Streptococcus sp.; inoculum 5×10^5 CFU/mL): <0.06 µg/mL | MIC Streptococcus pneumoniae (GC 4565) (Streptococcus sp.; inoculum 5×10^5 CFU/mL): <0.06 µg/mL | MIC Streptococcus pneumoniae (ATCC 6301) (Streptococcus sp.): <0.06 µg/mL | MIC Streptococcus pneumoniae (GC 1894) (Streptococcus sp.): <0.06 µg/mL | MIC Streptococcus pyogenes (GC 4563) (Streptococcus sp.): <0.06 µg/mL | MIC Streptococcus agalactiae (GC 4564) (Streptococcus sp.): <0.06 µg/mL | MIC Streptococcus pneumoniae (GC 4565) (Streptococcus sp.): <0.06 µg/mL | MIC Escherichia coli (ATCC 25922) (Escherichia coli; strain ATCC 25922, 18 hours at 35° C.): >64 µg/mL | MIC Escherichia coli (GC 4559) (Escherichia coli; strain GC 4559, 18 hours at 35° C.): >64 µg/mL | MIC Escherichia coli (GC 4560) (Escherichia coli; strain GC 4560, 18 hours at 35° C.): 4 µg/mL (≈ 2.6 µM) | MIC Staphylococcus aureus (GC 1131) (Staphylococcus sp.; inoculum 5×10^5 CFU/mL): 8 µg/mL (≈ 5.21 µM) | MIC Staphylococcus aureus (ATCC 29213) (Staphylococcus sp.; strain ATCC 29213): 4 µg/mL (≈ 2.6 µM) | MIC Staphylococcus aureus (GC 1131) (Staphylococcus sp.): 8 µg/mL (≈ 5.21 µM) | MIC Staphylococcus aureus (GC 3051) (Staphylococcus sp.; strain GC 3051): 2 µg/mL (≈ 1.3 µM) | MIC Staphylococcus aureus (GC 3053) (Staphylococcus sp.; strain GC 3053): 2 µg/mL (≈ 1.3 µM) | MIC Staphylococcus aureus (GC 4541) (Staphylococcus sp.; strain GC 4541): 8 µg/mL (≈ 5.21 µM) | MIC Staphylococcus aureus (GC 4542) (Staphylococcus sp.; strain GC 4542): 4 µg/mL (≈ 2.6 µM) | MIC Staphylococcus aureus (GC 4544) (Staphylococcus sp.; strain GC 4544): 4 µg/mL (≈ 2.6 µM) | MIC Staphylococcus aureus (GC 4545) (Staphylococcus sp.; strain GC 4545): 4 µg/mL (≈ 2.6 µM) | MIC Staphylococcus aureus-SMITH (GC 4543) (Staphylococcus sp.; strain GC 4543): 4 µg/mL (≈ 2.6 µM) | MIC Staphylococcus haemolyticus (GC 4546) (Staphylococcus sp.; strain GC 4546): 8 µg/mL (≈ 5.21 µM) | MIC Coagulase Negative Staphylococcus (GC 4547) (Staphylococcus sp.; strain GC 4547): 4 µg/mL (≈ 2.6 µM) | MIC Coagulase Negative Staphylococcus (GC 4548) (Staphylococcus sp.; strain GC 4548): 2 µg/mL (≈ 1.3 µM) | MIC Coagulase Negative Staphylococcus (GC 4549) (Staphylococcus sp.; strain GC 4549): 4 µg/mL (≈ 2.6 µM) | MIC Coagulase Negative Staphylococcus (GC 4551) (Staphylococcus sp.; strain GC 4551): 4 µg/mL (≈ 2.6 µM) | MIC Coagulase Negative Staphylococcus (GC 6257) (Staphylococcus sp.; strain GC 6257): 2 µg/mL (≈ 1.3 µM) | MIC Enterococcus faecalis (ATCC 29212) (Enterococcus sp.; inoculum 5×10^5 CFU/mL): 8 µg/mL (≈ 5.21 µM) | MIC Enterococcus faecalis (GC 2242) (Enterococcus sp.; inoculum 5×10^5 CFU/mL): 8 µg/mL (≈ 5.21 µM) | MIC Enterococcus faecium (GC 2243) (Enterococcus sp.; inoculum 5×10^5 CFU/mL): 2 µg/mL (≈ 1.3 µM) | MIC Enterococcus faecalis (GC 2691) (Enterococcus sp.; inoculum 5×10^5 CFU/mL): 2 µg/mL (≈ 1.3 µM) | MIC Enterococcus faecalis (GC 3059) (Enterococcus sp.; inoculum 5×10^5 CFU/mL): 4 µg/mL (≈ 2.6 µM) | MIC Enterococcus faecalis (GC 4552) (Enterococcus sp.; inoculum 5×10^5 CFU/mL): 8 µg/mL (≈ 5.21 µM) | MIC Enterococcus faecalis (GC 4553) (Enterococcus sp.; inoculum 5×10^5 CFU/mL): 4 µg/mL (≈ 2.6 µM) | MIC Enterococcus faecalis (GC 4554) (Enterococcus sp.; inoculum 5×10^5 CFU/mL): 4 µg/mL (≈ 2.6 µM) | MIC Enterococcus faecium (GC 4556) (Enterococcus sp.; inoculum 5×10^5 CFU/mL): 8 µg/mL (≈ 5.21 µM) | MIC Enterococcus faecium (GC 4557) (Enterococcus sp.; inoculum 5×10^5 CFU/mL): 4 µg/mL (≈ 2.6 µM) | MIC Enterococcus avium (GC 4558) (Enterococcus sp.; inoculum 5×10^5 CFU/mL): 2 µg/mL (≈ 1.3 µM) | MIC Enterococcus faecalis (GC 6189) (Enterococcus sp.; inoculum 5×10^5 CFU/mL): 2 µg/mL (≈ 1.3 µM) | MIC Enterococcus faecalis (ATCC 29212) (Enterococcus sp.): 8 µg/mL (≈ 5.21 µM) | MIC Enterococcus faecalis (GC 2242) (Enterococcus sp.): 8 µg/mL (≈ 5.21 µM) | MIC Enterococcus faecium (GC 2243) (Enterococcus sp.): 2 µg/mL (≈ 1.3 µM) | MIC Enterococcus faecalis (GC 2691) (Enterococcus sp.): 2 µg/mL (≈ 1.3 µM) | MIC Enterococcus faecalis (GC 3059) (Enterococcus sp.): 4 µg/mL (≈ 2.6 µM) | MIC Enterococcus faecalis (GC 4552) (Enterococcus sp.): 8 µg/mL (≈ 5.21 µM) | MIC Enterococcus faecalis (GC 4553) (Enterococcus sp.): 4 µg/mL (≈ 2.6 µM) | MIC Enterococcus faecalis (GC 4554) (Enterococcus sp.): 4 µg/mL (≈ 2.6 µM) | MIC Enterococcus faecium (GC 4556) (Enterococcus sp.): 8 µg/mL (≈ 5.21 µM) | MIC Enterococcus faecium (GC 4557) (Enterococcus sp.): 4 µg/mL (≈ 2.6 µM) | MIC Enterococcus avium (GC 4558) (Enterococcus sp.): 2 µg/mL (≈ 1.3 µM) | MIC Enterococcus faecalis (GC 6189) (Enterococcus sp.): 2 µg/mL (≈ 1.3 µM)
